From PMC2824672, “Identification of inhibitors of Plasmodium falciparum phosphoethanolamine methyltransferase using an enzyme-coupled transmethylation assay” (2010)

Columns and labels:
[1] = target: T1, phosphoethanolamine methyltransferase, PfPMT (Plasmodium falciparum, UniProt Q8IDQ9); experiment: 1H-15N HSQC NMR titration; also inhibition of purified enzyme in coupled assay; format: binding
T1 construct: gene PMT; recombinant 6His-tagged PfPMT (266 residues), 15N-labeled for NMR

[2] = target: T2, phosphoethanolamine methyltransferase, PfPMT (Plasmodium falciparum, UniProt Q8IDQ9); experiment: 1H-15N HSQC NMR titration (weak; no enzyme inhibition at […]); format: binding; parameters: gene PMT; recombinant 6His-tagged PfPMT, 15N-labeled for NMR
T2 sequence (Q8IDQ9 1-266): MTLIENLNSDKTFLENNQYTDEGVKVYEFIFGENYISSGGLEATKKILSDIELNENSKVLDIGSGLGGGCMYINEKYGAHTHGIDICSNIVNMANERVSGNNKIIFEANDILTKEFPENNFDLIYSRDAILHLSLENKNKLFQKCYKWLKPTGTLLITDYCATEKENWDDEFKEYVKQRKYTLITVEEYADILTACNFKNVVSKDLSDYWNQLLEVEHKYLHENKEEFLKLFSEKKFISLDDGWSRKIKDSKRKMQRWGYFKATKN

[3] = target: T2, phosphoethanolamine methyltransferase, PfPMT; experiment: enzyme-coupled spectrophotometric methyltransferase assay; format: biochemical; parameters: gene PMT; recombinant purified PfPMT (pET-15b)
[4] = target: T2, phosphoethanolamine methyltransferase, PfPMT; experiment: enzyme-coupled assay, substrate turnover by purified enzyme; format: biochemical; parameters: gene PMT; recombinant purified PfPMT (pET-15b)
[5] = target: T2, phosphoethanolamine methyltransferase, PfPMT; experiment: enzyme-coupled assay, co-substrate turnover by purified enzyme; format: biochemical; parameters: gene PMT; recombinant purified PfPMT (pET-15b)

Question: For `CCN(CC)Cc1cc(Nc2ccnc3cc(Cl)ccc23)ccc1O` [AQ, amodiaquine], which inhibition at 5 µM [1] is on record?
Answer: The inhibition at 5 µM was 60%.

Question: Which “1H-15N HSQC NMR titration (weak; no enzyme inhibition at 200 μM)” value [2] does the source give for `CCN(CC)CCCC(C)Nc1ccnc2cc(Cl)ccc12` (stereo not shown) [CQ, chloroquine] here?
Answer: The value was “indicating site-specific binding, the affinity of CQ for PfPMT is much lower than that of AQ”.

Question: For `CCCCCCCCCCCC[N+](C)(C)C` [DDTA, Dodecyltrimethylammonium bromide], which inhibition at 500 µM [3] is on record?
Answer: Its inhibition at 500 µM is 25%.

Question: `CCCCCCCCCCCCCCCC[N+](C)(C)C` [HDTA, Hexadecyltrimethylammonium bromide] was tested. Which inhibition at 100 µM [3] did it give?
Answer: Its inhibition at 100 µM is ~50%.

Question: `CCCCCCCCCCCCCCCCOP(=O)([O-])OCC[N+](C)(C)C` [HePC, Miltefosine] was tested. Which inhibition at 100 µM [3] did it give?
Answer: Its inhibition at 100 µM is ~60%.

Question: For `NCCOP(=O)(O)O` [P-EA, phosphoethanolamine], which “enzyme-coupled assay, substrate turnover by purified enzyme” value [4] is on record?
Answer: Its value is “PfPMT activity increased proportionally to the concentration of these substrates”.

Question: Which “enzyme-coupled assay, co-substrate turnover by purified enzyme” value [5] does the source give for `C[S+](CC[C@H](N)C(=O)[O-])C[C@H]1O[C@@H](n2cnc3c(N)ncnc32)[C@H](O)[C@@H]1O` (stereo partly shown) [SAM, S-adenosylmethionine] here?
Answer: Its value is “The effect of increasing concentrations of the substrate P-EA and co-substrate SAM on PfPMT activity was also measured”.
